Assay results: patent publication US12350270B2, “Antimalarial agents” (Merck Sharp & Dohme LLC, priority 2019, dated 2025)

tested on: parasites (ring stage, in human red blood cell culture); assay: Parasite LDH growth assay (antiparasite potency, Parasite Assay); assay type: cell-based, Plasmodium falciparum; settings: Plasmodium falciparum, Erythrocyte, 72 h, 0.7% rings, 2% haematocrit, 72 hours at 37° C., LDH readout of parasite growth
In short: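 Growth was read by an LDH assay after a freeze–thaw cycle (−80 °C overnight, 4 h thaw at RT). Before that, parasites grew with compound for 72 h at 37 °C under gassed, humidified conditions. The input was a ring-stage culture adjusted to 0.7% parasitemia and 2% haematocrit in serum (5%)/albumax (0.5%)-supplemented RPMI-Hepes.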

| SMILES | EC50 [nM] |
| --- | --- |
| CCC1(CC)CC(=O)N([C@@H]2CCOc3ccc(C(=O)N[C@@H]4c5cc(F)ccc5OC[C@H]4O)cc32)C(=N)N1 [Example 191, (4R)-4-(4,4-diethyl-2-imino-6-oxo-hexahydropyrimidin-1-yl)-N-[(3S,4R)-6-fluoro-3-hydroxy-chroman-4-yl]chromane-6-carboxamide] | 2.6 |
| CCC1(CC)CC(=O)N([C@@H]2CCOc3ccc(C(=O)N[C@H]4c5cc(F)ccc5OC[C@@H]4O)cc32)C(=N)N1 [Example 192, (4R)-4-(4,4-diethyl-2-imino-6-oxo-hexahydropyrimidin-1-yl)-N-[(3R,4S)-6-fluoro-3-hydroxy-chroman-4-yl]chromane-6-carboxamide] | 232 |
| CCC1(CC)CC(=O)N([C@@H]2CCOc3ccc(C(=O)NC(c4ccccc4)c4ccccc4)cc32)C(=N)N1 [Example 194, (4R)-N-benzhydryl-4-(4,4-diethyl-2-imino-6-oxo-hexahydropyrimidin-1-yl)chromane-6-carboxamide] | 0.9 |
| CC1(C)CC(=O)N([C@@H]2CCOc3ccc(C(=O)N[C@@H]4c5cc(Cl)ccc5OC[C@@]4(C)O)cc32)C(=N)N1 [Example 195, (4R)-N-[(3S,4R)-6-chloro-3-hydroxy-3-methyl-chroman-4-yl]-4-(2-imino-4,4-dimethyl-6-oxo-hexahydropyrimidin-1-y)chromane-6-carboxamide] | 3.5 |
| CC[C@]1(C)CC(=O)N([C@@H]2CCOc3ccc(C(=O)N[C@@H]4c5cc(Cl)ccc5OC[C@H]4O)cc32)C(=N)N1 [Example 196, (4R)-N-[(3S,4R)-6-chloro-3-hydroxy-chroman-4-yl]-4-[(4R)-4-ethyl-2-imino-4-methyl-6-oxo-hexahydropyrimidin-1-yl]chromane-6-carboxamide] | 8.6 |
| CCC1(CC)CC(=O)N([C@@H]2CCOc3ccc(C(=O)N[C@H]4c5ccccc5C(F)(F)[C@@H]4O)cc32)C(=N)N1 [Example 197, (4R)-4-(4,4-diethyl-2-imino-6-oxo-hexahydropyrimidin-1-yl)-N-[(1S,2R)-3,3-difluoro-2-hydroxy-indan-1-yl]chromane-6-carboxamide] | 125 |
| CCC1(CC)CC(=O)N([C@@H]2CCOc3ccc(C(=O)N[C@@H]4c5ccccc5C(F)(F)[C@H]4O)cc32)C(=N)N1 [Example 198, (4R)-4-(4,4-diethyl-2-imino-6-oxo-hexahydropyrimidin-1-yl)-N-[(1R,2S)-3,3-difluoro-2-hydroxy-indan-1-yl]chromane-6-carboxamide] | 11.3 |
| CC1(C)CC(=O)N([C@@H]2CC(F)(F)c3ccc(C(=O)N[C@@H]4c5ccccc5OC(C)(C)[C@H]4O)cc32)C(=N)N1 [Example 199, (3R)-1,1-difluoro-N-[(3S,4R)-3-hydroxy-2,2-dimethyl-chroman-4-yl]-3-(2-imino-4,4-dimethyl-6-oxo-hexahydropyrimidin-1-yl)indane-5-carboxamide] | 1.1 |
| CCC1(CC)CC(=O)N([C@@H]2CCOc3ccc(C(=O)NC(c4ccccc4)C4CCCCC4)cc32)C(=N)N1 (stereo partly drawn) [Example 200, (4R)-N-[cyclohexyl(phenyl)methyl]-4-(4,4-diethyl-2-imino-6-oxo-hexahydropyrimidin-1-yl)chromane-6-carboxamide] | 2.9 |
| CCC1(CC)CC(=O)N([C@@H]2CCCc3ccc(C(=O)N[C@@H]4c5ccccc5OC(C)(C)[C@H]4O)cc32)C(=N)N1 [Example 201, (4R)-4-(4,4-diethyl-2-imino-6-oxo-hexahydropyrimidin-1-yl)-N-[(3S,4R)-3-hydroxy-2,2-dimethyl-chroman-4-yl]tetralin-6-carboxamide] | 1.4 |
| CC[C@]1(C)CC(=O)N([C@H]2c3cc(C(=O)N[C@@H]4c5ccccc5C[C@@]4(C)O)ccc3OC[C@@H]2COC)C(=N)N1 [Example 202, (3S,4R)-4-[(4R)-4-ethyl-2-imino-4-methyl-6-oxo-hexahydropyrimidin-1-yl]-N-[(1R,2R)-2-hydroxy-2-methyl-indan-1-yl]-3-(methoxymethyl)chromane-6-carboxamide] | 0.8 |
| CCC1(CC)CC(=O)N([C@H]2C[C@@H](OC)c3ccc(C(=O)N[C@@H]4c5ccccc5OC[C@@]4(C)O)cc32)C(=N)N1 [Example 204, (1R,3S)-3-(4,4-diethyl-2-imino-6-oxo-hexahydropyrimidin-1-yl)-N-[(3S,4R)-3-hydroxy-3-methyl-chroman-4-yl]-1-methoxy-indane-5-carboxamide] | 247 |
| CCC1(CC)CC(=O)N([C@@H]2C[C@H](OC)c3ccc(C(=O)N[C@@H]4c5ccccc5OC[C@@]4(C)O)cc32)C(=N)N1 [Example 205, (1S,3R)-3-(4,4-diethyl-2-imino-6-oxo-hexahydropyrimidin-1-yl)-N-[(3S,4R)-3-hydroxy-3-methyl-chroman-4-yl]-1-methoxy-indane-5-carboxamide] | 2.1 |
| COCC1(C)CC(N2C(=N)NC(C)(C)CC2=O)c2cc(C(=O)N[C@@H]3c4ccccc4C[C@]3(C)O)ccc2O1 (stereo partly drawn) [Example 206, N-[(1R,2S)-2-hydroxy-2-methyl-indan-1-yl]-4-(2-imino-4,4-dimethyl-6-oxo-hexahydropyrimidin-1-yl)-2-(methoxymethyl)-2-methyl-chromane-6-carboxamide] | 66 |
| CCC1(CC)CC(=O)N(C2c3cc(C(=O)N[C@H]4CC(C)(C)Oc5ccccc54)ccc3OCC2O)C(=N)N1 (stereo partly drawn) [Example 207, 4-(4,4-diethyl-2-imino-6-oxo-hexahydropyrimidin-1-yl)-N-[(4S)-2,2-dimethylchroman-4-yl]-3-hydroxy-chromane-6-carboxamide] | 22 |
| CCC1(CC)CC(=O)N(C2c3cc(C(=O)N[C@@H]4c5ccccc5C[C@H]4O)ccc3OCC2(C)OC)C(=N)N1 (stereo partly drawn) [Example 208, 4-(4,4-diethyl-2-imino-6-oxo-hexahydropyrimidin-1-yl)-N-[(1R,2R)-2-hydroxyindan-1-yl]-3-methoxy-3-methyl-chromane-6-carboxamide] | 3.7 |
| CCC1(CC)CC(=O)N(C2CC(C)Oc3ccc(C(=O)N[C@@H]4c5ccccc5OC[C@@]4(C)O)cc32)C(=N)N1 (stereo partly drawn) [Example 209, 4-(4,4-diethyl-2-imino-6-oxo-hexahydropyrimidin-1-yl)-N-[(3S,4R)-3-hydroxy-3-methyl-chroman-4-yl]-2-methyl-chromane-6-carboxamide] | 7.9 |
| CC[C@]1(C)CC(=O)N(C2CC(C)Oc3ccc(C(=O)N[C@@H]4c5ccccc5OC(C)(C)[C@H]4O)cc32)C(=N)N1 (stereo partly drawn) [Example 210, 4-[(4R)-4-ethyl-2-imino-4-methyl-6-oxo-hexahydropyrimidin-1-yl]-N-[(3S,4R)-3-hydroxy-2,2-dimethyl-chroman-4-yl]-2-methyl-chromane-6-carboxamide] | 195 |
| CCC1(CC)CC(=O)N([C@@H]2CCCOc3ccc(C(=O)N[C@@H]4c5ccccc5OC[C@@]4(C)O)cc32)C(=N)N1 [Example 211, (5R)-5-(4,4-diethyl-2-imino-6-oxo-hexahydropyrimidin-1-yl)-N-[(3S,4R)-3-hydroxy-3-methyl-chroman-4-yl]-2,3,4,5-tetrahydro-1-benzoxepine-7-carboxamide] | 8.9 |
| CCC1(CC)CC(=O)N(C2c3cc(C(=O)N[C@@H]4c5ccccc5C[C@@]4(C)O)ccc3OCC2OC)C(=N)N1 (stereo partly drawn) [Example 212, 4-(4,4-diethyl-2-imino-6-oxo-hexahydropyrimidin-1-yl)-N-[(1R,2R)-2-hydroxy-2-methyl-indan-1-yl]-3-methoxy-chromane-6-carboxamide] | 6.5 |
| CCC1(CC)CC(=O)N(C2c3cc(C(=O)N[C@@H]4c5ccccc5C[C@]4(C)O)ccc3OCC2OC)C(=N)N1 (stereo partly drawn) [Example 213, 4-(4,4-diethyl-2-imino-6-oxo-hexahydropyrimidin-1-yl)-N-[(1R,2S)-2-hydroxy-2-methyl-indan-1-yl]-3-methoxy-chromane-6-carboxamide] | 9 |
| CCC1(CC)CC(=O)N([C@H]2c3cc(C(=O)N[C@@H]4c5ccccc5C[C@H]4O)ccc3OC[C@H]2COC)C(=N)N1 [Example 215, (3R,4R)-4-(4,4-diethyl-2-imino-6-oxo-hexahydropyrimidin-1-yl)-N-[(1R,2R)-2-hydroxyindan-1-yl]-3-(methoxymethyl)chromane-6-carboxamide] | 4.2 |
| CCC1(CC)CC(=O)N([C@H]2c3cc(C(=O)N[C@@H]4c5ccccc5C[C@H]4O)ccc3OC[C@@H]2COC)C(=N)N1 [Example 216, (3S,4R)-4-(4,4-diethyl-2-imino-6-oxo-hexahydropyrimidin-1-yl)-N-[(1R,2R)-2-hydroxyindan-1-yl]-3-(methoxymethyl)chromane-6-carboxamide] | 2.7 |
| COC1COc2ccc(C(=O)N[C@@H]3c4ccccc4OC(C)(C)[C@H]3O)cc2C1N1C(=N)NC(C)(C)CC1=O (stereo partly drawn) [Example 217, N-[(3S,4R)-3-hydroxy-2,2-dimethyl-chroman-4-yl]-4-(2-imino-4,4-dimethyl-6-oxo-hexahydropyrimidin-1-yl)-3-methoxy-chromane-6-carboxamide] | 4.9 |
| CC[C@]1(C)CC(=O)N(C2c3cc(C(=O)N[C@@H]4c5ccccc5OC[C@@]4(C)O)ccc3OCC2OC)C(=N)N1 (stereo partly drawn) [Example 218, 4-[(4R)-4-ethyl-2-imino-4-methyl-6-oxo-hexahydropyrimidin-1-yl]-N-[(3S,4R)-3-hydroxy-3-methyl-chroman-4-yl]-3-methoxy-chromane-6-carboxamide] | 64 |
| COCC1(C)Oc2ccc(C(=O)N[C@@H]3c4ccccc4OC[C@@]3(C)O)cc2C1N1C(=N)NC(C)(C)CC1=O (stereo partly drawn) [Example 219, N-[(3S,4R)-3-hydroxy-3-methyl-chroman-4-yl]-3-(2-imino-4,4-dimethyl-6-oxo-hexahydropyrimidin-1-yl)-2-(methoxymethyl)-2-methyl-3H-benzofuran-5-carboxamide] | 208 |
| CC1(C)CC(=O)N([C@@H]2CCS(=O)(=O)c3ccc(C(=O)N[C@H]4CC(C)(C)Oc5ccccc54)cc32)C(=N)N1 [Example 220, (4R)-N-[(4S)-2,2-dimethylchroman-4-yl]-4-(2-imino-4,4-dimethyl-6-oxo-hexahydropyrimidin-1-yl)-1,1-dioxo-3,4-dihydro-2H-thiochromene-6-carboxamide] | 2.9 |
